Test results reported in US12673065B2, “Anti-inflammatory composition and method of treatment” (KUWAIT UNIVERSITY, priority 2020, dated 2026).

Experiments:
[1] = system: HDM-challenged BALB/c mice; experiment: HDM-induced total and differential cell influx in BAL fluid; assay type: in vivo; details: synergy study, OBE 30 mg/kg i.p., dexamethasone 0.5 mg/kg i.p., alone or combined, mean±SEM
Protocol: (§1) Male BALB/c mice (6-8 weeks old, average weight 25 g) were used in this study. All studies involving animals were in accordance with the ARRIVE guidelines for reporting experiments involving animals. All experimental protocols were approved by the Animal Welfare and Use of Laboratory Animals Committee in the Health Sciences Center, Kuwait University and were carried out in accordance with the EU Directive 2010/63/EU for animal experiments and the National Institutes of Health guide for the care and use of Laboratory animals (NIH Publications No. 8023, revised 1978). Animals were maintained under temperature-controlled conditions with an artificial 12-hour light/dark cycle and were allowed standard chow and water ad libitum.
(§2) Seven treatment groups (A-G, 9-15 animals per group) were established to determine whether OBE, if given prophylactically, inhibits the HDM-induced asthma phenotype. […]
(§3) Twenty-four hours after the last intranasal challenge, half of the animals were sacrificed with an overdose of halothane, bronchoalveolar lavage (BAL) was performed to obtain BAL fluid, and then the lungs were excised in preparation for histology, Western Blot (WB) and immunofluorescence (IF) studies. […] In the other half of the animals, airway responsiveness was measured.

[2] = system: HDM-challenged BALB/c mice; experiment: Lung histology scoring (H&E and PAS) after HDM challenge; assay type: in vivo; details: synergy study, OBE 30 mg/kg, dexamethasone 0.5 mg/kg, alone or combined, score 1-5
Protocol: as §1, §2, §3

[3] = system: HDM-challenged BALB/c mice; experiment: HDM-induced airway hyperresponsiveness to methacholine (lung resistance); assay type: in vivo; details: dexamethasone 3 mg/kg; 50 mg/ml of methacholine; HDM/vehicle 7.9±0.5
Protocol: Airway responsiveness was measured 24 h after the last HDM or PBS challenge, using a separate set of animals using the Buxco FinePointe series RC site (DSI, Wilmington, NC) as described previously in the literature. Briefly, mice were anesthetized with an intraperitoneal injection of ketamine/xylazine ([…]) cocktail and tracheotomized with a steel 18-gauge cannula. Mice were then mechanically ventilated at a rate of 150 breaths/minute and a tidal volume of 0.15 ml using a computerized small animal ventilator (FinePointe site). Following a 5 min period of stabilization and administration of PBS, airway resistance was measured by exposing mice to aerosolized methacholine (6.25-50.0 mg/ml, 5 μl per delivery) delivered by an aerogen nebulizer and reported as total lung resistance (RL) (cm H2O per ml/sec).
All numerical values were expressed as means±SEM. Total cell counts represent the number of cells/ml of BAL fluid. Differential cell counts represent the absolute number of each cell type/ml of BAL fluid. Absolute RL values were computed and were used as an index of airway responsiveness. For the histopathological assessment, a semi-quantitative 5-level lung pathology score was used to grade the degree of inflammation in each microscopic field at 20×. All data were initially assessed for normality. […]

pERK1/2 (Thr202/Tyr204) = experiment: Immunofluorescence of lung sections, phosphorylation of ERK1/2; assay type: in vivo, mice; details: synergy study; OBE 30 mg/kg, dexamethasone 0.5 mg/kg, alone or combined; HDM 319.0±10.4
Protocol: Lung tissues were processed as described above. Immunofluorescence was performed as previously described in the literature. In short, lung sections were incubated in a blocking solution (5% bovine serum albumin (BSA)+0.3% Triton X-100 in PBS) for 1 hour, and were subsequently incubated overnight at 4° C. with primary antibodies [p-EGFR (Tyr1068) (Rabbit; Cat. No. 3777S), pAKT (Ser 473) (Rabbit; Cat. No. 9271L) and pERK1/2 (Thr202/Tyr204) (Rabbit; Cat. No. 9101L) (1:25-1:800 dilution) or only 1% BSA (for negative control); Cell Signaling, USA], diluted in 1% blocking solution. Twenty-four hours later, the sections were washed and incubated with secondary antibody conjugated to Alexa Fluor 555 (Goat anti rabbit SFX kit; Life Technologies, USA, 1:400 dilution) for 2 hours at room temperature in the dark. Following several washes in PBS, the sections were stained with 4′,6-diamidino-2-phenylindole and mounted. Images were then captured on a ZEISS LSM 700 confocal microscope, and fluorescence intensity was estimated in defined fields using an Image J software package. […]
All numerical values were expressed as means±SEM. […] For the histopathological assessment, a semi-quantitative 5-level lung pathology score was used to grade the degree of inflammation in each microscopic field at 20×. All data were initially assessed for normality. […]

## C[C@@H]1C[C@H]2[C@@H]3CCC4=CC(=O)C=C[C@]4(C)[C@@]3(F)[C@@H](O)C[C@]2(C)[C@@]1(O)C(=O)CO [dexamethasone]
[1]; HDM/vehicle 3.7±0.3
  eosinophils in BAL fluid: 1.3±0.1 ×10^5
[1]; HDM/vehicle 6.4±0.5
  total cell count in BAL fluid: 4.3±0.2 ×10^5
[2]; HDM 4.2±0.2
  mucous intensity score: 3.0±0.2
[2]; HDM 4.5±0.2
  cellular infiltration score: 3.1±0.3
[3]
  lung resistance (RL): 5.2±0.8 cm H2O per ml/sec
pERK1/2 (Thr202/Tyr204)
  HDM-induced phosphorylation of ERK1/2 (pERK1/2 levels): 264.8±4.9%
